Laboratory results taken from patent EP0490598A1 (priority 1990, dated 1992).
In brackets after ≈: the same amount, converted by molar mass. Where two headings read alike, the source gives them in different places.

Columns and labels:
BHK cells = experiment: Cytotoxicity assay, BHK cell growth (cell counting); format: cell-based, hamster; conditions: Mesocricetus auratus, 72 h, three days of incubation, read-out: IC50 ng/ml approx.
Procedure: (§1) Pateamine was diluted in MeOH/CH₂Cl₂ 1:1 at 100 ng/ml and it has been tested at different concentrations. The solvent was allowed to evaporate before the cells were seeded.
It has been done two kinds of cytotoxicity assays, one of them employing the same screening protocols and another one with the MTT method. In both cases the cells were: CV-1 (monkey kidney fribroblast) BHK (hamster kidney fibroblast)
BHK cells were seeded into 16 mm wells at 2 x 10⁴ per well. The day after the inoculum was replaced by 1 ml aliquots of MEM 10FCS containing the indicated concentration of drug. All determinations were carried out in duplicate. After three days of incubation cells were counted and the IC₅₀ was determined.

murine lymphocytes = experiment: Mixed Lymphocyte Reaction (MLR) assay; format: cell-based, mice; conditions: Mus musculus, two-way MLR, Balb/c and C57B1/6 lymphocytes, 96 hours, 3H-thymidine
Procedure: (§2) Murine lymphocytes were derived by splenectomy, under sterile conditions, from Balb/c and C57B1/6 mice sacrificed by cervical dislocation. Spleens were homogenized in 15 mM RPMI medium […], 87%; fetal calf serum, 10%; L-glutamine (200 mM), 2% and supplemented with 1% antibiotic-antimycotic solution (GIBCO) and 25 µg/ml gentamycin. Red blood cells were lysed by brief exposure to sterile, distilled water and subsequently reconstituted to normal tonicity with PBS (10x). The final cell preparation was enumerated, and the viability evaluated, by means of a hemacytometer using the trypan blue exclusion method.
The MLR is an in vitro test of cellular immunity in which murine lymphocytes from genetically dissimilar animals are cocultured to mutually induce cell proliferation (i.e. two-way MLR method). […] Data from the MLR is generated as dpm of radioactivity which is then expressed as a percentage of cellular activity, relative to control, using the following reduced formula: (Experimental value - (Balb/c - C57B1/6 - Media))/(Positive Control - (Balb/c - C57B1/6 - Media))x 100 [formula] […]
Reconstituted compound at each of several concentrations was added in duplicate (10µl) into wells of a 96-well microtiter plate and evaporated to dryness at room temperature. […] The radioactivity from DNA-bound 3H thymidine was counted using a dry INOTECH counter. Results were calculated as described above.

[1] = test system: VSV (vesicular stomatitis virus); format: cell-based; conditions: VSV in BHK cells
Balb/c lymphocytes = experiment: Lymphocyte Viability (LCV) assay, MTT; format: cell-based, mice; conditions: Mus musculus, 96 hours, 50% viability
Procedure: as §2
The LCV is an in vitro cytotoxicity assay for murine lymphocytes designed by the investigator. […] The percent viable cells is determined by the MTT-thiazolyl blue method after a similar incubation in the MLR of lymphocytes with the test sample. […] If there is no significant reduction in cell viability, as determined by this detection method, then damaged cells are probably not present for low data values generated in the MLR. Colorimetric data from the LeV is calculated as a percentage of viability, relative to control, using the following formula: (Experimental value - (Nonspecific Color))/(Positive Control - (Media))x 100 [formula] […]

P-388 cells = experiment: Antitumoral assay, P-388 cell growth (cell counting); format: cell-based, mouse; conditions: for IC50: Mus musculus
Procedure: as §1
Four general anitumoural assays, employing the current screening protocols have been carried out using the following cells: P-388 (lymphoid neoplasm from DBA/2 mouse) A-549 (human lung carcinoma) HT-29 (human colon carcinoma) KB (human oral epidermoid carcinoma)
P-388 cells were seeded into 16 mm wells at 1 x 10⁴ per well in […] aliquots of MEM 10FCS containing the indicated concentration or drug. All determinations were carried out in duplicate. After three days of incubation cells were counted and the IC₅₀ was determined.

Compound: CC(/C=C/C(C)=C/C1Cc2nc(cs2)C(C)CC(N)CC(=O)OC(C)C/C(C)=C/C=C\C(=O)O1)=C\CN(C)C (centres unmarked) [PATEAMINE, pateamine]
- IC50 (BHK cells): ~3 ng/mL (≈ 5.4 nM)
- IC50 (murine lymphocytes): < 1.5 ng/mL
- IC50 ng/disk [1]: >10 ng/disk
- % Inhibition BHK/VSV (sign for plaque reduction) ([1]; 10ng): 14 - (The sign (-), indicates no inhibition of virus replication.)
- IC50 (Balb/c lymphocytes): 4100 ng/mL (≈ 7380 nM)
- % Inhibition P-388 cell growth (P-388 cells; 0.1ng, three days of incubation): 11%
- % Inhibition P-388 cell growth (P-388 cells; 1ng, three days of incubation): 100%
- % Inhibition P-388 cell growth (P-388 cells; 5ng, three days of incubation): 100%
- % Inhibition P-388 cell growth (P-388 cells; 10ng, three days of incubation): 100%
- IC50 (P-388 cells; P388, 72 h, P-388, three days of incubation, read-out: IC50 ng/ml approx.): ~0.3 ng/mL (≈ 0.54 nM)
- IC50 (P-388 cells; P388, read-out: IC50): 0.15 ng/mL (≈ 0.27 nM)
